Measurements as given in patent US6436344B1, “Method of inactivating pathogens” (American National Red Cross, priority 1999, dated 2002).
Where “and” joins values, the source holds several entries; their conditions need not be identical. Equal entries are not always repeated. Where two headings read alike, the source gives them in different places.

Experiments:
[1] = tested on: porcine parvovirus (PPV); test: Porcine parvovirus inactivation by IAA, TCID50 titration on PK 15 cells (Example 2); assay type: cell-based, strain PPV 893/76; conditions: for PPV Reduction Factor: 4 hours
Description: RPC-purified IAA was diluted to the desired μM concentrations in water or in 5% IgG solution (>98% pure, KABI, Stockholm, Sweden), and the pH was adjusted to 5.00 with 0.4 M sodium phosphate. […] The samples were then gel filtered through sterile PD 10 columns containing Sephadex G-25 (Amersham Pharmacia Biotech Uppsala, Sweden) equilibrated with 25 ml of cell culture medium. A sample (2 ml) was layered onto the column and the fall-through was discarded. Then 3.2 ml cell culture medium (3.2 ml) was added to the column and the first 0.5 mL of eluate was discarded. The remaining eluate was collected for viral assay. The resulting diluting factor was 1.48. Materials for viral assays were as follows. […] The cell supernatant was clarified by low speed centrifugation and filtered through 0.45 μm and 0.2 μm filters before storing at -70° C. in aliquots. The target cells for titration of PPV were porcine kidney cell line PK 15 (ATCC CCL-33). The cells were cultivated according to conventional cell culture procedures in EMEM with non-essential amino acids (SVA, Uppsala, Sweden), supplemented with 120 μg/ml of penicillin G, 100 μg/ml of streptomycin sulfate and 5% fetal calf serum. Cells were seeded in 96 well microtiter plates (Nunc). Viral assays were performed by a TCID50 method. The original virus stock (positive control sample) and the test samples were serially diluted ten-fold in cell culture medium shortly after sampling. Aliquots (50 μl) of each dilution were added to eight wells of the 96-well microtiter plates. […] After incubation for 7 days at 37° C. in a humidified atmosphere of 5% CO2, the cells were rinsed in physiological saline and fixed in 80% acetone for 30 minutes at -20° C., after which the fixation fluid was removed and the plates were dried at 37° C. Virus infected cells were visualized by an immunoperoxidase method (Jensen […]. 22 (1981) 85-98; […]., RECENT ADVANCES IN VIRUS DIAGNOSTICS, McNutly and […]. (1984) 37-46; Saunders G. C., Am. J. VET. RES. 38 (1977) 21-25). […] The cells were then washed twice for five minutes with wash fluid and once with physiological saline. Peroxidase-conjugated rabbit anti-mouse IgG P 2060 (Dakopatts, Denmark) was added to the cells. […] Wells with viral foci were counted using an inverted microscope and the tissue culture infectious dose giving a 50% end point (TCID50) was calculated for each sample. […] 10^R=(V'×10^a')/(V''×10^a'')

[2] = Effect of pH 12, heat and thiosulfate on iodoacetaldehyde, GC-MS and NMR (Example 8); assay type: physicochemical
[3] = Relative amount of IAA and its hydrated form in water by NMR (Example 1C); assay type: physicochemical; conditions: water solution, NMR estimate, 40° C.
Description: One-dimensional ^1H-NMR spectra were recorded on a Bruker DRX 500 spectrometer at 40° C. The signal for TSP was used as internal reference (δH=0.0 ppm). A sample was prepared by adding 50 μl of the solution purified by reverse phase chromatography (RPC) to 650 μl D2O and subsequently transferring the diluted sample to a 5 mm NMR tube. For the quantitative measurement, a solution of Sodium Trimethyl Silyl Propionic acid (TSP, 0.991 mg/ml) was prepared; and 10 μl of that solution was added to the sample. By comparing the integral of the methyl groups in TSP with the integral of the CH2-group in hydrated IAA, an estimate of the IAA concentration in the sample could be made. Iodoacetaldehyde is in equilibrium with its hydrated form in a water solution. An estimate based on NMR is that the hydrated form accounts for approximately 90% of the sample, and the aldehyde form approximately 10%. This equilibrium should be taken into account when calculating concentration of IAA in aqueous media.

[4] = tested on: porcine parvovirus (PPV); test: Porcine parvovirus inactivation by CAA, TCID50 titration on PK-13 cells (Example 3); assay type: cell-based, PPV strain NADL-2
Description: An aqueous solution of chloroacetaldehyde (Aldrich Chemical, Milwaukee, Wis., Product 31,727-6, Lot KS02106MR, 50% in water) was diluted to the desired mM concentrations (0.5, 1, 2 and 5 mM) in 0.05 M sodium acetate buffer, pH 5.5. The 2 mM and 5 mM CAA samples were also prepared in 2.5% IgG solution, buffered at pH 5.5 with sodium acetate. Positive hold controls contained 0.05 M sodium acetate buffer, pH 5.5, or acetate-buffered 2.5% IgG without CAA. Positive controls and test samples were spiked 1:40 with porcine parvovirus (ATCC VR-742, PPV strain NADL-2). Aliquots were removed for immediate viral assay and the remaining samples were incubated at 37° C. for 4, 7 and 22.5 hours and then assayed to determine viral titers.
(§1) Viral assays were performed by the TCID50 method as described by Miekka et al, HEMOPHILIA 4, 401-408 (1998). Target porcine kidney cells, PK-13 (ATCC CRC-6490), were seeded into 96-well microtiter plates and grown to 50-70% confluence. Five-fold serial dilutions (200 μL) of samples were prepared in cell culture medium and added to four wells each. Plates were incubated for 7 days at 37° C. in humidified 5% carbon dioxide. Cell layers were analyzed for cytopathic effect, and log10 viral titers were calculated by the method of Kärber, ARCH. Exp. PATHOL. PHARMAKOL., 162, 480-483 (1931). The average PPV reduction rate (log10/hour) was computed by regression analysis of the viral titers at each of the time points tested. Viral titers that had decreased to the assay limit were excluded from this calculation.

[5] = tested on: pseudorabies virus (PRV); assay type: cell-based; conditions: for Pseudorabies Virus Av. rate / Pseudorabies Virus Reduction Factor: pH 5.5, 4 hours at 37° C.
[6] = molecular target: T1, human coagulation Factor VIII (Homo sapiens, UniProt P00451); test: Preservation of Factor VIII clotting activity, one-stage APTT (Example 5); assay type: biochemical; conditions: for FVIII u/mL after 37° C. incubation, 3 hours: 3 hours at 37° C.
T1 construct: The CFVIII product tested was ‘Antihemophilic Factor, Human, Method M, Solvent and Detergent Treated’ (American Red Cross); tissue American Red Cross; host or cells: human plasma (own knowledge: Method M is a plasma-derived, monoclonal-antibody-purified concentrate)

[7] = tested on: porcine parvovirus (PPV); test: Inactivation of PPV by CAA in the presence of Factor VIII (Example 6); assay type: cell-based
Description: as §1
A stock solution of 100 mM CAA in water was neutralized to pH 7.0 and was added to CFVIII to give final CAA concentrations of 3 mM and 6 mM and final CFVIII concentration of 100 clotting units/mL. All samples were buffered at pH 5.5 with 0.02 M sodium acetate. PPV was spiked into the samples at 1:40 ratio. The samples were incubated for 4 hours at 37° C. The positive hold controls were acetate buffer or Factor VIII, spiked with PPV and incubated 4 hours at 37° C. Viral assays and cell culture techniques were performed as described in EXAMPLE 3. Viral reduction factors were calculated as the difference between the log10 titers of the non-incubated and 4-hour incubated samples.

[8] = molecular target: T2, human coagulation Factor IX (Homo sapiens, UniProt P00740); test: Preservation of Factor IX clotting activity, one-stage APTT (Example 7); assay type: biochemical; conditions: 0.01 M calcium chloride, pH 6.2
T2 construct: highly-purified human coagulation Factor IX, a labile plasma clotting factor; from tissue

[9] = 5 mM CAA, incubation for 4 hours
[10] = CAA 3 mM, Factor VIII (AHF-M) 100 clotting units/mL, pH 5.5, 4 hours at 37° C.
[11] = CAA 3 mM, buffer pH 5.5, 4 hours at 37° C.
[12] = CAA 6 mM, Factor VIII (AHF-M) 100 clotting units/mL, pH 5.5, 4 hours at 37° C.
[13] = CAA 6 mM, buffer pH 5.5, 4 hours at 37° C.
[14] = CAA 3 and 6 mM, with and without Factor VIII, 4 hours

T1 sequence (P00451 20-1667 limits assumed): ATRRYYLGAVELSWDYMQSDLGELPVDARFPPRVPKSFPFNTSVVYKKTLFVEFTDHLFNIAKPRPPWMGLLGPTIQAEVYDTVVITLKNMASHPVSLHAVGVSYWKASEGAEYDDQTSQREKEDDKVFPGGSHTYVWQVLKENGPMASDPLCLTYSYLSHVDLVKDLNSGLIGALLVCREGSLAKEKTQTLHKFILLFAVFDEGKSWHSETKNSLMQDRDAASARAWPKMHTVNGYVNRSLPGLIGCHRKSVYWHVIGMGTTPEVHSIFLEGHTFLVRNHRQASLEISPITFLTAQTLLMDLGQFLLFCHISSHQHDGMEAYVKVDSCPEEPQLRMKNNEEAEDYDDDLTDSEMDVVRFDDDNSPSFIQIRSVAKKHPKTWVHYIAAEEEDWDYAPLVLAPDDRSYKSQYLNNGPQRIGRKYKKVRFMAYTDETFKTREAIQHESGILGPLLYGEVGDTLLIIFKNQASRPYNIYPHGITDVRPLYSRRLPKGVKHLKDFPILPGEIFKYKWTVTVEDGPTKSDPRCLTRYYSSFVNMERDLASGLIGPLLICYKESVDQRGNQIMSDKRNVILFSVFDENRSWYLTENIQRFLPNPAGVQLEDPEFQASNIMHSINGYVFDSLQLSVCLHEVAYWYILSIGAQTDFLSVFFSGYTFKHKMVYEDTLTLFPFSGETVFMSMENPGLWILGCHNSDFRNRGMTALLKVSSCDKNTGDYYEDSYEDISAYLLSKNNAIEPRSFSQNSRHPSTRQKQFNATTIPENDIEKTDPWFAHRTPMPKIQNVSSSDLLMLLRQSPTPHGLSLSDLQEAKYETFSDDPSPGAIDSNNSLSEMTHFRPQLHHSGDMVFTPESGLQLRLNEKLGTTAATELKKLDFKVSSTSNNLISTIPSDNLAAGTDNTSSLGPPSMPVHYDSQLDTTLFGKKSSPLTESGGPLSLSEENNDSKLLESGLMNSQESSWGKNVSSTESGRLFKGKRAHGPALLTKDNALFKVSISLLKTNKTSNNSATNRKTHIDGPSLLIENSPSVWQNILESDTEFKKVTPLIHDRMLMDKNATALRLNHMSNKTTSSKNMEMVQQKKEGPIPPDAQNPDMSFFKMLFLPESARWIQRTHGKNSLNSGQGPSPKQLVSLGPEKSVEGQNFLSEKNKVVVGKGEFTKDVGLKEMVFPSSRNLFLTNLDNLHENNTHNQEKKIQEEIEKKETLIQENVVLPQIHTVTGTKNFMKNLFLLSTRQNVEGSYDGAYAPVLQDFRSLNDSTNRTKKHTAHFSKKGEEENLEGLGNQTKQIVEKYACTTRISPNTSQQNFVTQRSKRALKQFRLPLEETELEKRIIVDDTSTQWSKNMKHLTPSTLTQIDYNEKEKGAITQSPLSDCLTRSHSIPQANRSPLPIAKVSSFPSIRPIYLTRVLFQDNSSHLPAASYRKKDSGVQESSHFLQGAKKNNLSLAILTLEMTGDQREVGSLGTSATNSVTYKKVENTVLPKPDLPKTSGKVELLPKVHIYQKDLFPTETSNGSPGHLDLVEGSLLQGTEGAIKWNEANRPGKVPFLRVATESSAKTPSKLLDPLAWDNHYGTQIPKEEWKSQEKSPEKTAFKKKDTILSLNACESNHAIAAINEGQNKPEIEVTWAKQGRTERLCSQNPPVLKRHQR
T1 sequence (P00451 1668-2351 limits assumed): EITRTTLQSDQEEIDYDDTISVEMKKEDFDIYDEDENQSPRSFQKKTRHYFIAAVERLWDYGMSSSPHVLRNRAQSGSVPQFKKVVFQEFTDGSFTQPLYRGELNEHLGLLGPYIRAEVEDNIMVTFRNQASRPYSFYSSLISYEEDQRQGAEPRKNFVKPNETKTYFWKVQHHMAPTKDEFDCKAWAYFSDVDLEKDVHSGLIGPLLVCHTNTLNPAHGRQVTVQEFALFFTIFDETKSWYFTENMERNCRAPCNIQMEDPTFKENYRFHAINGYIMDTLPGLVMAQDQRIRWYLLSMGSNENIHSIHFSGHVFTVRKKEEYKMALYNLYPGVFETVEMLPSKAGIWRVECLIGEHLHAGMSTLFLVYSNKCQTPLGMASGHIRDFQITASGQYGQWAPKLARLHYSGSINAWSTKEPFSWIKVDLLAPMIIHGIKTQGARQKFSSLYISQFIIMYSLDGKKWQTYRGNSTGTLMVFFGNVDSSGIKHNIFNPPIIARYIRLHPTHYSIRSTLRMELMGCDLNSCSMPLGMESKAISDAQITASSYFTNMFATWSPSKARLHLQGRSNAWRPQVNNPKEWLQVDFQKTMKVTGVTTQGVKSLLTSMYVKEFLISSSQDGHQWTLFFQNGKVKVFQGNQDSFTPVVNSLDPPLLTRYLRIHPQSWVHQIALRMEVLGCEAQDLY
T2 sequence (P00740 47-461): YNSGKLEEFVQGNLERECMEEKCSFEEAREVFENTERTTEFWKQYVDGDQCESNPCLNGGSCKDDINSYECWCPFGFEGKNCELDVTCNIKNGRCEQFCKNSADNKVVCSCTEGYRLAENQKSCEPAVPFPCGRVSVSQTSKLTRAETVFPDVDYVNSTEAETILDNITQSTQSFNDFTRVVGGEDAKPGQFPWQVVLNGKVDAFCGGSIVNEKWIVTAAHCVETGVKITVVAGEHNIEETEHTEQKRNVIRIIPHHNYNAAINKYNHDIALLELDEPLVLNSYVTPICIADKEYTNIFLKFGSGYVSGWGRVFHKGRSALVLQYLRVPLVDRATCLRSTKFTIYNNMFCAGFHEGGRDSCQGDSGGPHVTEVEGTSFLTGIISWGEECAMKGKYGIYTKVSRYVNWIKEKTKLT

O=CCI [IAA, Iodoacetaldehyde]
potency relative to CAA (PPV inactivation) ([1]; 180 μM IAA v. 2 mM CAA at the same rate): over 10 times
PPV Reduction Factor ([1]; IAA 36 μM (hydrated form), 5% IgG, pH 4.64, 37° C.): ≦0.7 Log10/4 hours
PPV Reduction Factor ([1]; IAA 36 μM (hydrated form), buffer, pH 4.96, 37° C.): 0.8 Log10/4 hours
PPV Reduction Factor ([1]; IAA 45 μM (hydrated form), 5% IgG, pH 4.64, 37° C.): 0.9 Log10/4 hours
PPV Reduction Factor ([1]; IAA 45 μM (hydrated form), buffer, pH 4.96, 37° C.): 1.1 Log10/4 hours
PPV Reduction Factor ([1]; IAA 60 μM (hydrated form), 5% IgG, pH 4.64, 37° C.): 1.2 Log10/4 hours
PPV Reduction Factor ([1]; IAA 60 μM (hydrated form), buffer, pH 4.96, 37° C.): 1.1 Log10/4 hours
PPV Reduction Factor ([1]; IAA 90 μM (hydrated form), 5% IgG, pH 4.62, 37° C.): 1.4 Log10/4 hours
PPV Reduction Factor ([1]; IAA 90 μM (hydrated form), buffer, pH 4.95, 37° C.): 1.7 Log10/4 hours
PPV inactivation rate ([1]; IAA 180 μM): ~0.6 log10/hour
PPV Reduction Factor ([1]; IAA 180 μM (hydrated form), 5% IgG, pH 4.61, 37° C.): 2.5 Log10/4 hours
PPV Reduction Factor ([1]; IAA 180 μM (hydrated form), buffer, pH 4.93, 37° C.): 2.7 Log10/4 hours
PPV Reduction Factor ([1]; IAA 600 μM (hydrated form), 5% IgG, pH 4.56, 37° C.): ≧4.7 Log10/4 hours
PPV Reduction Factor ([1]; IAA 600 μM (hydrated form), buffer, pH 4.84, 37° C.): ≧4.7 Log10/4 hours
concentration effective at inactivating pathogens, e.g., porcine parvovirus (as low as) ([1]; IAA hydrate): 50 µM
Effect on Iodoacetaldehyde, Change ([2]; 80° C. (20 hours)): Degraded
Effect on Iodoacetaldehyde, Change ([2]; Sodium thiosulfate, 2-20 mM): Degraded
Effect on Iodoacetaldehyde, Change ([2]; pH 12 (0.5 hour)): Degraded
aldehyde form, share of the sample [3]: approximately 10%
hydrated form, share of the sample [3]: approximately 90%

O=CCCl [CAA, Chloroacetaldehyde]
PPV inactivation rate ([4]; 2 mM CAA): ~0.6 log10/hour
porcine parvovirus inactivated [4, 9]: 3.2 -4 log10
porcine parvovirus inactivated ([4]; 4-hour treatment with 5 mM CAA): ≥ 3.6 logs
Average PPV Reduction ([4]; CAA 0.5 mM (total), buffer, pH 5.40, 37° C.): 0.16 Log10/hour
Average PPV Reduction ([4]; CAA 1 mM (total), buffer, pH 5.40, 37° C.): 0.26 Log10/hour
Average PPV Reduction ([4]; CAA 2 mM (total), 2.5% IgG, pH 5.36, 37° C.): 0.61 Log10/hour
Average PPV Reduction ([4]; CAA 2 mM (total), buffer, pH 5.50, 37° C.): 0.48 Log10/hour
Average PPV Reduction ([4]; CAA 5 mM (total), 2.5% IgG, pH 5.50, 37° C.): ≧0.79 Log10/hour
concentration effective at inactivating pathogens (as low as) ([4]; aqueous solutions of chloroacetaldehyde): about 1.0 mM
Pseudorabies Virus Av. rate ([5]; 2 mM): 0.66 log10/hour
Pseudorabies Virus Reduction Factor ([5]; 2 mM): 2.10 log10/4 hours
pseudorabies virus inactivated [5, 9]: ≥ 3.2 log10
Pseudorabies Virus Av. rate ([5]; 5 mM): ≧0.79 log10/hour
Pseudorabies Virus Reduction Factor ([5]; 5 mM): ≧3.15 log10/4 hours
FVIII u/mL after 37° C. incubation, 0 hour ([6]; CAA 4.2 mM): 121 u/mL and 95 u/mL
FVIII u/mL after 37° C. incubation, 0 hour ([6]; CAA 8.5 mM): 88 u/mL and 109 u/mL
FVIII u/mL after 37° C. incubation, 3 hours ([6]; CAA 8.5 mM): 105 u/mL and 117 u/mL
FVIII u/mL after 37° C. incubation, 0 hour ([6]; CAA 12.7 mM): 89 u/mL and 106 u/mL
FVIII u/mL after 37° C. incubation, 3 hours ([6]; CAA 12.7 mM): 91 u/mL and 108 u/mL
PPV Average rate [7, 10]: ≧0.61 Log10/hour
PPV Reduction Factor [7, 10]: ≧2.44 Log10/4 hours
PPV Average rate [7, 11]: ≧0.57 Log10/hour
PPV Reduction Factor [7, 11]: ≧2.27 Log10/4 hours
PPV Average rate [7, 12]: ≧0.52 Log10/hour
PPV Reduction Factor [7, 12]: ≧2.09 Log10/4 hours
PPV Average rate [7, 13]: ≧0.43 Log10/hour
PPV Reduction Factor [7, 13]: ≧1.75 Log10/4 hours
PPV reduction factors (limited by assay sensitivity) [7, 14]: ≥ 2 log10/4 hours
PPV reduction rate (limited by assay sensitivity) [7, 14]: ≥ 0.5 log10/hour
% of initial clotting activity remaining after 37° C. incubation ([8]; CFIX-M + 1 mM CAA, 0 hour): 95.2%
% of initial clotting activity remaining after 37° C. incubation ([8]; CFIX-M + 1 mM CAA, 4 hour): 93.9%
% of initial clotting activity remaining after 37° C. incubation ([8]; CFIX-M + 1 mM CAA, 20 hour): 100.3%
% of initial clotting activity remaining after 37° C. incubation ([8]; CFIX-M + 5 mM CAA, 0 hour): 97.7%
% of initial clotting activity remaining after 37° C. incubation ([8]; CFIX-M + 5 mM CAA, 4 hour): 100.6%
% of initial clotting activity remaining after 37° C. incubation ([8]; CFIX-M + 5 mM CAA, 20 hour): 89.1%
